Measured values taken from patent US10617694B2 (priority 2016, dated 2020).
Read-outs that look alike come from different tables or passages of the source.

Experiments:
[1] = tested on: subjects with obstructive sleep apnea; experiment: Long term effect of sultiame and acetazolamide in obstructive sleep apnea, sleep studies (Example 2); details: for AHI at follow-up: sultiame 200 mg single daily dose for three months
Carbonic anhydrase (CA) = experiment: Carbonic anhydrase activity in venous blood from a patient with obstructive sleep apnea (pH curve AUC); assay type: biochemical, human; details: diluted hemolysed blood of one OSA patient
Description: Carbonic anhydrase (CA) activity was assessed in human plasma from an apnea patient using a method previously described in detail (Teng et al, Sleep 2016). […] The blood sample (antecubital vein) was collected in an EDTA-coated tube, stored within 30 min at −20° C. and subsequently transferred to −70° C. Prior to analysis, the sample was slowly thawed, refrozen and re-thawed on ice in order to obtain hemolysis. The assay was adapted from a method previously described by Everaert et al (ref in Teng et al, Sleep 2016). In detail, a buffer consisting of 0.02M HEPES, 0.02M MES, 0.035M KCl and 0.015M NaCl with a balanced capacity in the pH 6-8 range was prepared. The subsequent analysis was conducted on ice in order to maintain a temperature of around 0-1° C. A separate solution constituting of 200 ml of 0-1° C. distilled water was continuously flushed with 100% CO2 and kept at 0-1° C. for at least 30 min. […] The pH in the reaction vessel was continuously monitored at 1 Hz during 120 s. […] The intra- and inter assay variability was 5.0% and 7.6%, respectively. pH curves were plotted and analysed (FIG. 1). In order to reflect time of the catalysed reaction the area under the curve (AUC, range 802-837) was calculated as the sum of all pH assessments during 120 sec. […]

[2] = tested on: patients with obstructive sleep apnea; set-up: key to Side effect paresthesia (P) (scale 0-3) / Side effect cognitive dysfunction (C) (scale 0-3): 1 = none; 2 = low; 3 = medium; 4 = high; details: cited from earlier work; for Reduction in AHI / Reported adverse events. Frequency (n/patient): literature: acetazolamide meta data from 9 publications (n = 268), zonisamide Eskandari et al. (n = 13); for Efficacy AHI reduction (rating 0-3) / Side effect cognitive dysfunction (C) (scale 0-3) / Side effect paresthesia (P) (scale 0-3): literature: acetazolamide meta data, zonisamide Eskandari et al.
[3] = tested on: patients with obstructive sleep apnea; experiment: Table 1 summary of efficacy and side effects in sleep apnea, compared with acetazolamide, topiramate and zonisamide data; assay type: in vivo, human; set-up: key to Side effect paresthesia (P) (scale 0-3) / Side effect cognitive dysfunction (C) (scale 0-3): 1 = none; 2 = low; 3 = medium; 4 = high; Reduction in AHI: concentration or dose not given beside the values; details: for Side effect total rating (T) (scale 0-3): T = (P + 2C)/3, Table 1; for Reduction in AHI: own data: sultiame Examples 1 and 2 (n = 3); for Reduction in AHI / Efficacy AHI reduction (rating 0-3) / Side effect cognitive dysfunction (C) (scale 0-3) / Side effect paresthesia (P) (scale 0-3): acetazolamide Example 2; for Efficacy AHI reduction (rating 0-3) / Side effect cognitive dysfunction (C) (scale 0-3) / Side effect paresthesia (P) (scale 0-3): own data: sultiame Examples 1 and 2, topiramate unpublished data
Text: The results from Example 1 and 2 are summarized in table 1, below, where the results are further compared with data reflecting the effect of acetazolamide, topiramate and zonisamide in sleep apnea.

[4] = tested on: patient with obstructive sleep apnea; experiment: Repeated dosing of sultiame in obstructive sleep apnea, repeated sleep studies (Example 1); assay type: in vivo, human; details: for central AHI: baseline 3.2 n/h; for obstructive AHI: baseline 12.4 n/h; for AHI: baseline 16.6 n/h; for lowest saturation: baseline 87%; for mean oxygen saturation: baseline 95.3%
Text: Person, BMI 28.3 kg/m^2. The subject was a non-smoker and there was no history of cardiovascular or metabolic disease and no regular medication. This subject presented with a history of snoring, witnessed apneas, and increased daytime sleepiness. They had previously tested both CPAP and mandibular advancement therapy with moderate regression of symptoms. The subject had experienced intolerable side effects including dry airways and sneezing caused by CPAP therapy. They had experienced discomfort from the temporomandibular joints following use of an intraoral device for mandibular advancement.
There had been a weight gain corresponding to 2 kg during the last three years.
It was decided that sultiame should be tested. Repeated sleep studies were undertaken before and after therapy with sultiame.
This second assessment provided the following values: AHI 9.8 n/h (central AHI 2.2 n/h and obstructive AHI 7.6/h), mean oxygen saturation 95.8%, lowest saturation 89%, and periodic breathing pattern 10.1 minutes.
There had been a weight reduction corresponding to 1.2 kg

healthy volunteers = experiment: Clinical trial on tolerability of a high dose of sultiame in healthy volunteers; assay type: in vivo, human
Description: Most earlier clinical trials have been carried out in patients diagnosed with epilepsy. The goal of this study was to investigate the tolerability of sultiame in non-epileptic patients.
The trial involved 16 healthy volunteers. […] The administration was carried out without ramping up the dose. There were only two reports of adverse events in this group of 16 volunteers (32 dosing occasions, 12.5% of individuals or 6.25% of dosing occasions). These adverse events were limited to short periods of headache, which occurred when the drug was administered without food. The headache resolved within a short time frame.

[5] = cited from earlier work
[6] = own data: acetazolamide Example 2, topiramate unpublished data (n = 4)
[7] = topiramate unpublished data (n = 4)
[8] = sultiame 200 mg daily for three months, both subjects
[9] = 100 mg orally once daily, after 5 days

Structure (SMILES): CC(=O)Nc1nnc(S(N)(=O)=O)s1 [Acetazolamide]
- side effects: paraesthesia ([1]; acetazolamide 500 mg o.d., both subjects): both subjects developed peripheral paraesthesia
- oxygen desaturation index (ODI) ([1]; first subject, acetazolamide 500 mg o.d., 10 days after start, before 16.6 n/h): 12.6 n/h
- AHI ([1]; first subject, acetazolamide 500 mg o.d., 10 days after start, before 17.4 n/h): 13.4 n/h
- oxygen desaturation index (ODI) ([1]; second subject, acetazolamide 500 mg o.d., 16 days after start, before 12.6 n/h): 9.2 n/h
- AHI ([1]; second subject, acetazolamide 500 mg o.d., 16 days after start, before 15.2 n/h): 10.2 n/h
- CA activity after compound (peak inhibition), arbitrary units 850-AUC (Carbonic anhydrase (CA); 0-1° C., 120 s, activity without compound 32, concentrations 1×10^−11 to 5×10^−9 M): 19.5 units
- reduction of CA activity (Carbonic anhydrase (CA); reduction from 32 units): 39%
- Reduction in AHI [2]: 37.3%
- Reported adverse events. Frequency (n/patient) [2]: 1.08/patient
- Reduction in AHI ([2]; listed as acetazolamide): 37.3%
- Efficacy AHI reduction (rating 0-3) [2]: 2 (30-<50% = 2)
- Side effect cognitive dysfunction (C) (scale 0-3) [2]: 2
- Side effect paresthesia (P) (scale 0-3) [2]: 4
- Side effect total rating (T) (scale 0-3) [3]: 2.7
- Reported adverse events. Frequency (n/patient) [3, 6]: 1.0/patient
- Reduction in AHI [3, 7]: 28.0%
- Efficacy AHI reduction (rating 0-3) [3]: 1 (5-<30% = 1)
- Side effect cognitive dysfunction (C) (scale 0-3) [3]: 2
- Side effect paresthesia (P) (scale 0-3) [3]: 4

Structure (SMILES): NS(=O)(=O)c1ccc(N2CCCCS2(=O)=O)cc1 [Sultiame]
- AHI at follow-up ([1]; first subject, day 89, before 17.4 n/h): 7.6 n/h
- AHI at follow-up ([1]; second subject, day 90, before 15.2 n/h): 6.5 n/h
- daytime sleepiness ([1]; sultiame 200 mg daily for three months, both cases): reduction of daytime sleepiness
- side effects: paraesthesia [1, 8]: not reported
- snoring [1, 8]: reduced snoring
- tolerability [1, 8]: well tolerated by both subjects
- effectiveness in decreasing sleep apnea versus acetazolamide ([1]; sultiame 200 mg daily versus acetazolamide 500 mg o.d.): considerably more effective than acetazolamide
- daytime symptoms of sleepiness [4, 9]: general resolution of daytime symptoms of sleepiness
- central AHI [4, 9]: 2.2 n/h
- obstructive AHI [4, 9]: 7.6 h⁻¹
- AHI [4, 9]: 9.8 n/h
- lowest saturation [4, 9]: 89%
- mean oxygen saturation [4, 9]: 95.8%
- periodic breathing pattern ([4]; 100 mg orally once daily, after 5 days, baseline 14.3 minutes): 10.1 min
- central AHI ([4]; 200 mg once daily for 14 days): 1.2 n/h
- obstructive AHI ([4]; 200 mg once daily for 14 days): 3.0 n/h
- AHI ([4]; 200 mg once daily for 14 days): 4.2 n/h
- lowest saturation ([4]; 200 mg once daily for 14 days): 90%
- mean oxygen saturation ([4]; 200 mg once daily for 14 days): 96.7%
- periodic breathing pattern duration ([4]; 200 mg once daily for 14 days, baseline 14.3 minutes): 2.8 min
- dose dependence of AHI reduction ([4]; 200 mg once daily versus 100 mg once daily): reduced AHI in a dose-dependent manner
- tolerability at high doses (healthy volunteers; 200 mg without ramping up the dose, healthy volunteers): excellent tolerability
- reports of adverse events (short periods of headache, drug administered without food) (healthy volunteers; 200 mg, 16 volunteers, 32 dosing occasions): two
- adverse events, % of dosing occasions (healthy volunteers; 200 mg, 32 dosing occasions, 16 healthy volunteers): 6.25%
- adverse events, % of individuals (healthy volunteers; 200 mg, two times (with and without prior food intake), 16 healthy volunteers): 12.5%
- half-life in plasma [5]: about 24 hrs
- Side effect total rating (T) (scale 0-3) [3]: 1
- Reduction in AHI [3, 7]: 62.7%
- Reduction in AHI ([3]; topiramate unpublished data (n = 4), listed as sultiame): 62.7%
- Efficacy AHI reduction (rating 0-3) [3]: 3 (≥50% = 3)
- Side effect cognitive dysfunction (C) (scale 0-3) [3]: 1
- Side effect paresthesia (P) (scale 0-3) [3]: 1
- Reported adverse events. Frequency (n/patient) ([3]; sultiame, Examples 1 and 2 (n = 3)): 0% (AHI reduction 0-5 < % = 0)
- adverse effects after administration ([3]; sultiame, patients with obstructive sleep apnea, Examples 1 and 2): not observed

Structure (SMILES): CC1(C)O[C@@H]2[C@@H](CO[C@@]3(COS(N)(=O)=O)OC(C)(C)O[C@@H]23)O1 [Topiramate]
- Side effect total rating (T) (scale 0-3) [3]: 3.7
- Reported adverse events. Frequency (n/patient) [3, 6]: 0.75/patient
- Reduction in AHI [3, 7]: 28.0%
- Reduction in AHI ([3]; topiramate unpublished data (n = 4), listed as topiramate): 28.0%
- Efficacy AHI reduction (rating 0-3) [3]: 1 (5-<30% = 1)
- Side effect cognitive dysfunction (C) (scale 0-3) [3]: 4
- Side effect paresthesia (P) (scale 0-3) [3]: 3

Structure (SMILES): NS(=O)(=O)Cc1noc2ccccc12 [Zonisamide]
- Reduction in AHI [2]: 20.7%
- Reported adverse events. Frequency (n/patient) [2]: 0.44/patient
- Reduction in AHI ([2]; listed as zonisamide): 20.7%
- Efficacy AHI reduction (rating 0-3) [2]: 1 (5-<30% = 1)
- Side effect cognitive dysfunction (C) (scale 0-3) [2]: 4
- Side effect paresthesia (P) (scale 0-3) [2]: 2
- Side effect total rating (T) (scale 0-3) [3]: 3.3
